From US20030049337A1, “Composition for preventing fructose absorption” (NAGAOKA PERFUMERY CO., LTD, priority 2001, published 2003)

Test system: Wistar SPF rats
Details: rat, in vivo
Method: The subacute toxicity test by oral administration was conducted using Wistar SPF rats. That is, the rats were divided into the control group (n=7) to which the athrocytosis of the usual feed is carried out, and the eucalyptus group (n=7) to which the athrocytosis of the feed which mixed the eucalyptus extract of 1 volume % with usual feed is carried out, and bred each individually. The rats of these groups were made to carry out free ingestion of feed and the potable water.
The amount of food ingested and the amount of drinking water of rats of these groups were measured every day, and weight change was measured twice per week. The test was continued for five weeks. After the test end, by collecting blood from the heart, rats were made to die and pathological changes, malformation, etc. of each organization, such as internal organs, were confirmed after dissection.

With eucalyptus extract the “amount of cholesterol in liver vs control group” value was “significant difference was not observed”, the “amount of drinking water vs control group” value was “significant difference was not accepted” and the “amount of food ingested vs control group” value was “significant difference was not accepted”. The “amount of triglyceride in liver vs control group” value was “significant difference was not observed” and the “weight change vs control group” value was “significant difference was not accepted”.
